According to PMC8228234, “Identifying a Novel Bile Salt Hydrolase from the Keystone Gut Bacterium Christensenella minuta” (Microorganisms, 2021):

Target: T1, Cm33407BSH (Christensenella minuta, UniProt A0A8F5DVT9)
T1 construct: gene BSH
Test: ninhydrin assay of released amino acid
Type: biochemical
Conditions: citrate buffer pH 6.0, 37 °C, 10 mM DTT, 5 mM substrate

T1 sequence (A0A8F5DVT9 entry or part of it): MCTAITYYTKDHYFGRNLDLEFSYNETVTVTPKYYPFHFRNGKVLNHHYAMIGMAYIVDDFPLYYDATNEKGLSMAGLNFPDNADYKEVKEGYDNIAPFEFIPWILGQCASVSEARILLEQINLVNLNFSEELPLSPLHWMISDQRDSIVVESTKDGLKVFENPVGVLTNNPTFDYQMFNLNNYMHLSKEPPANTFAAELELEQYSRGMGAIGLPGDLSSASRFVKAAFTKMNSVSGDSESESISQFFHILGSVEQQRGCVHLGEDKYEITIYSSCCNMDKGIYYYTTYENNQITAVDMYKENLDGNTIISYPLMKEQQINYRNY

Structure (SMILES) | specific activity
C[C@H](CCC(=O)NCC(=O)O)[C@H]1CC[C@H]2[C@@H]3[C@H](O)C[C@@H]4C[C@H](O)CC[C@]4(C)[C@H]3C[C@H](O)[C@]12C [GCA] | displayed high specific activity values for the glycine conjugates GCA and GCDCA
C[C@H](CCC(=O)NCC(=O)O)[C@H]1CC[C@H]2[C@@H]3[C@H](O)C[C@@H]4C[C@H](O)CC[C@]4(C)[C@H]3CC[C@]12C [GCDCA] | displayed high specific activity values for the glycine conjugates GCA and GCDCA
